Measurements as given in patent US20250346574A1, “PYRIDINYL SUBSTITUTED OXOISOINDOLINE COMPOUNDS FOR THE TREATMENT OF CANCER” (Bristol-Myers Squibb Company, priority 2021, published 2025).

Target: Helios (Homo sapiens, UniProt Q96SW2+Q9UKS7)
Assay: Helios Human T Regulatory Cells Degradation Assay
Format: cell-based
Design: fluorescently labelled antibodies against Helios in 1× Permeabilization buffer; endogenous in cells; host or cells: cryopreserved human T regulatory cells
Conditions: cryopreserved human T regulatory cells, incubated 20 hours, Helios-APC antibody staining, flow cytometry; read-out: hTreg Helios DC50
How it was run: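 Cryopreserved human Treg cells thawed in RPMI+10% FBS+20 ng/mL IL-2, rested 3 h, then incubated with compound 20 hours at 37° C, 5% CO2. Near-IR viability stain, permeabilization, flow cytometry read-out.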

Helios, sequence (Q9UKS7 whole entry): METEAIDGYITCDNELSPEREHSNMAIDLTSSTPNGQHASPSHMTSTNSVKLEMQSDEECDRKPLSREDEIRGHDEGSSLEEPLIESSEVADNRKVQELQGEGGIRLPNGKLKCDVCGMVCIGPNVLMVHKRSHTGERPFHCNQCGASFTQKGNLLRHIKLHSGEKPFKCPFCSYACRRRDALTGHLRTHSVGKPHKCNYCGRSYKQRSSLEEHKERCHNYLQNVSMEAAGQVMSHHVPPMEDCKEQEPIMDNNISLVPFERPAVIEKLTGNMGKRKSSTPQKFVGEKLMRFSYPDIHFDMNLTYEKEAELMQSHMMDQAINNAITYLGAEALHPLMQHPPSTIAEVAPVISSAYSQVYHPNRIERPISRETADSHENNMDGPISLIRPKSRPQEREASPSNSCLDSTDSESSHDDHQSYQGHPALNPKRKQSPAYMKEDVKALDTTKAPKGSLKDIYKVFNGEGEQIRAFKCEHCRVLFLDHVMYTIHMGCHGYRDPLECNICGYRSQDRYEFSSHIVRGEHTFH
Helios, sequence (Q96SW2 whole entry): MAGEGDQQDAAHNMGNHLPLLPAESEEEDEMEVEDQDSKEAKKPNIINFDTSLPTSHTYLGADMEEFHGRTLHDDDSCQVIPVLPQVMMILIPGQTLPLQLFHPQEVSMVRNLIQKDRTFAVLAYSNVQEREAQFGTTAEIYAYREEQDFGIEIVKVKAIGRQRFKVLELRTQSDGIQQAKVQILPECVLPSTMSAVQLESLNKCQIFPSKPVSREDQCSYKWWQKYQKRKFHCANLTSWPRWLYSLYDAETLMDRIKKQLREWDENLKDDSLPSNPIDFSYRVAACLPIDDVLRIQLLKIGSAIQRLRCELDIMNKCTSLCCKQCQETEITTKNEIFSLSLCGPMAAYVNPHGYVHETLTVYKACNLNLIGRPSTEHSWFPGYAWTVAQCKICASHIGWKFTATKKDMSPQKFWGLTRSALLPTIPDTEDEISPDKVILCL
Helios, sequence (Q16531 whole entry partner): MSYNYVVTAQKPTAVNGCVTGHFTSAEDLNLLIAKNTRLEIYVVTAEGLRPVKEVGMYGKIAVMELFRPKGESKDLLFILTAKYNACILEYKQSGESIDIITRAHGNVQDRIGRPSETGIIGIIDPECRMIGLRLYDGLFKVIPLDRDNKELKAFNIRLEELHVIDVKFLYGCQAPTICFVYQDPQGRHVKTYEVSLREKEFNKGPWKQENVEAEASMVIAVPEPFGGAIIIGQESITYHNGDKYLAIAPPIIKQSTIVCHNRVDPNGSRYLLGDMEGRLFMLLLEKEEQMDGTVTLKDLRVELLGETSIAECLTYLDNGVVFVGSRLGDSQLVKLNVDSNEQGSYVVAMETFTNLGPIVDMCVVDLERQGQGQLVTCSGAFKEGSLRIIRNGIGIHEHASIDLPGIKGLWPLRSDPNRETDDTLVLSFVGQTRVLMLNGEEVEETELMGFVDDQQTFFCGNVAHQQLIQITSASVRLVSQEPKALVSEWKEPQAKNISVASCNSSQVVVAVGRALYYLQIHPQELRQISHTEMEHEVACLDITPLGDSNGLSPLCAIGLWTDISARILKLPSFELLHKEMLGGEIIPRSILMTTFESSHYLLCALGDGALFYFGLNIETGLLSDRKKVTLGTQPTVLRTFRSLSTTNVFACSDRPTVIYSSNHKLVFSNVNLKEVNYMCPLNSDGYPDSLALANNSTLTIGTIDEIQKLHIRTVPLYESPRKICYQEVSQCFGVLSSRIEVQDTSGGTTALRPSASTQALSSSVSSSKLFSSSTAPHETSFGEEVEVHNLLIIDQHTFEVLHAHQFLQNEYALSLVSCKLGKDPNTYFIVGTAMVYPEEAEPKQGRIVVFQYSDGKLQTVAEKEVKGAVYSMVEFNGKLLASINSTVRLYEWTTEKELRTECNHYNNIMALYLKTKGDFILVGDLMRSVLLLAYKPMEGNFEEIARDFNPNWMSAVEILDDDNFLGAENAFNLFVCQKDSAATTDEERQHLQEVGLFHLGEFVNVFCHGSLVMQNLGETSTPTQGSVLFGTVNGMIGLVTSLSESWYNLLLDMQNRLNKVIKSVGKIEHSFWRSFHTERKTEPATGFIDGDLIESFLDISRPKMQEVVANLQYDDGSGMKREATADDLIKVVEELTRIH

Structure (SMILES) | DC50 [nM]
CC(C)(C)OC(=O)N1CCCC2(CN(Cc3ccnc(-c4ccc5c(c4)CN(C4CCC(=O)NC4=O)C5=O)c3F)C2)C1 (centres unmarked) [Example 208, tert-butyl 2-((2-(2-(2,6-dioxopiperidin-3-yl)-1-oxoisoindolin-5-yl)-3-fluoropyridin-4-yl)methyl)-2,6-diazaspiro[3.5]nonane-6-carboxylate] | ≥ 10000
CC(C)(C)OC(=O)N1CCCC12CCN(Cc1ccnc(-c3ccc4c(c3)CN(C3CCC(=O)NC3=O)C4=O)c1F)C2 (centres unmarked) [Example 213, tert-butyl 7-((2-(2-(2,6-dioxopiperidin-3-yl)-1-oxoisoindolin-5-yl)-3-fluoropyridin-4-yl)methyl)-1,7-diazaspiro[4.4]nonane-1-carboxylate] | ≥ 10000
CC(C)(C)OC(=O)N1CCC12CCCN(Cc1ccnc(-c3ccc4c(c3)CN(C3CCC(=O)NC3=O)C4=O)c1F)C2 (centres unmarked) [Example 216, tert-butyl 6-((2-(2-(2,6-dioxopiperidin-3-yl)-1-oxoisoindolin-5-yl)-3-fluoropyridin-4-yl)methyl)-1,6-diazaspiro[3.5]nonane-1-carboxylate] | ≥ 10000
C[C@@](O)(c1ccccc1)[C@H]1CCCN1Cc1ccnc(-c2ccc3c(c2)CN(C2CCC(=O)NC2=O)C3=O)c1F (stereo partly drawn) [Example 217, 3-(5-(3-fluoro-4-(((R)-2-((R)-1-hydroxy-1-phenylethyl)pyrrolidin-1-yl)methyl)pyridin-2-yl)-1-oxoisoindolin-2-yl)piperidine-2,6-dione] | 390
C[C@](O)(c1ccccc1)[C@H]1CCCN1Cc1ccnc(-c2ccc3c(c2)CN(C2CCC(=O)NC2=O)C3=O)c1F (stereo partly drawn) [Example 218, 3-(5-(3-fluoro-4-(((R)-2-((S)-1-hydroxy-1-phenylethyl)pyrrolidin-1-yl)methyl)pyridin-2-yl)-1-oxoisoindolin-2-yl)piperidine-2,6-dione] | 4130
CC1(O)CCCN(Cc2ccnc(-c3ccc4c(c3)CN(C3CCC(=O)NC3=O)C4=O)c2F)CC1 (centres unmarked) [Example 220, 3-(5-(3-fluoro-4-((4-hydroxy-4-methylazepan-1-yl)methyl)pyridin-2-yl)-1-oxoisoindolin-2-yl)piperidine-2,6-dione] | 34.2
CC1(C)CN(Cc2ccnc(-c3ccc4c(c3)CN(C3CCC(=O)NC3=O)C4=O)c2F)CCC1O (centres unmarked) [Example 221, 3-(5-(3-fluoro-4-((4-hydroxy-3,3-dimethylpiperidin-1-yl)methyl)pyridin-2-yl)-1-oxoisoindolin-2-yl)piperidine-2,6-dione] | 13900
O=C1CCC(N2Cc3cc(-c4nccc(CN5CCC6(CC5)CC(O)CO6)c4F)ccc3C2=O)C(=O)N1 (centres unmarked) [Example 222, 3-(5-(3-fluoro-4-((3-hydroxy-1-oxa-8-azaspiro[4.5]decan-8-yl)methyl)pyridin-2-yl)-1-oxoisoindolin-2-yl)piperidine-2,6-dione] | 2760
O=C1CCC(N2Cc3cc(-c4nccc(CN5CCC6(CC5)CC(O)C6)c4F)ccc3C2=O)C(=O)N1 (centres unmarked) [Example 225, 3-(5-(3-fluoro-4-((2-hydroxy-7-azaspiro[3.5]nonan-7-yl)methyl)pyridin-2-yl)-1-oxoisoindolin-2-yl)piperidine-2,6-dione] | 29.3
CC(=O)N1CC2CCC(C1)N2Cc1ccnc(-c2ccc3c(c2)CN(C2CCC(=O)NC2=O)C3=O)c1F (centres unmarked) [Example 227, 3-(5-(4-((3-acetyl-3,8-diazabicyclo[3.2.1]octan-8-yl)methyl)-3-fluoropyridin-2-yl)-1-oxoisoindolin-2-yl)piperidine-2,6-dione] | ≥ 10000
O=C1CCC(N2Cc3cc(-c4nccc(CN5CCC(O)(Cc6ccccc6)CC5)c4F)ccc3C2=O)C(=O)N1 (centres unmarked) [Example 235, 3-(5-(4-((4-benzyl-4-hydroxypiperidin-1-yl)methyl)-3-fluoropyridin-2-yl)-1-oxoisoindolin-2-yl)piperidine-2,6-dione] | 330
CC1CC(O)(c2ccc(F)cc2)CN1Cc1ccnc(-c2ccc3c(c2)CN(C2CCC(=O)NC2=O)C3=O)c1F (centres unmarked) [Example 237, 3-(5-(3-fluoro-4-((4-(4-fluorophenyl)-4-hydroxy-2-methylpyrrolidin-1-yl)methyl)pyridin-2-yl)-1-oxoisoindolin-2-yl)piperidine-2,6-dione] | ≥ 10000
O=C1CCC(N2Cc3cc(-c4nccc(CN5CCC(O)(c6ccccc6Cl)C5)c4F)ccc3C2=O)C(=O)N1 (centres unmarked) [Example 238, 3-(5-(4-((3-(2-chlorophenyl)-3-hydroxypyrrolidin-1-yl)methyl)-3-fluoropyridin-2-yl)-1-oxoisoindolin-2-yl)piperidine-2,6-dione] | 172
COC(=O)N[C@H]1CN(Cc2ccnc(-c3ccc4c(c3)CN(C3CCC(=O)NC3=O)C4=O)c2F)C[C@@H]1O (stereo partly drawn) [Example 248, methyl ((3S,4S)-1-((2-(2-(2,6-dioxopiperidin-3-yl)-1-oxoisoindolin-5-yl)-3-fluoropyridin-4-yl)methyl)-4-hydroxypyrrolidin-3-yl)carbamate] | ≥ 10000
O=C1CCC(N2Cc3cc(-c4nccc(CN5CCC6(CC5)OCc5ccccc56)c4F)ccc3C2=O)C(=O)N1 (centres unmarked) [Example 249, 3-(5-(4-((3H-spiro[isobenzofuran-1,4′-piperidin]-1′-yl)methyl)-3-fluoropyridin-2-yl)-1-oxoisoindolin-2-yl)piperidine-2,6-dione] | ≥ 10000
O=C1CCC(N2Cc3cc(-c4nccc(CN5CCCC(O)(c6ccccc6)C5)c4F)ccc3C2=O)C(=O)N1 (centres unmarked) [Example 250, 3-(5-(3-fluoro-4-((3-hydroxy-3-phenylpiperidin-1-yl)methyl)pyridin-2-yl)-1-oxoisoindolin-2-yl)piperidine-2,6-dione] | ≥ 10000
CC(=O)N1CC2(CCN(Cc3ccnc(-c4ccc5c(c4)CN(C4CCC(=O)NC4=O)C5=O)c3F)CC2)C1 (centres unmarked) [Example 251, 3-(5-(4-((2-acetyl-2,7-diazaspiro[3.5]nonan-7-yl)methyl)-3-fluoropyridin-2-yl)-1-oxoisoindolin-2-yl)piperidine-2,6-dione] | ≥ 10000
O=C1CCC(N2Cc3cc(-c4nccc(CN5CCCC(F)(c6ccccc6)C5)c4F)ccc3C2=O)C(=O)N1 (centres unmarked) [Example 253, 3-(5-(3-fluoro-4-((3-fluoro-3-phenylpiperidin-1-yl)methyl)pyridin-2-yl)-1-oxoisoindolin-2-yl)piperidine-2,6-dione] | ≥ 10000

The remaining lines, values ahead:

DC50 [nM] | Structure (SMILES)
≥ 10000 | O=C1CCC(N2Cc3cc(-c4nccc(CN5CCC(O)(C(F)(F)F)CC5)c4F)ccc3C2=O)C(=O)N1 (centres unmarked) [Example 209, 3-(5-(3-fluoro-4-((4-hydroxy-4-(trifluoromethyl)piperidin-1-yl)methyl)pyridin-2-yl)-1-oxoisoindolin-2-yl)piperidine-2,6-dione]
9.8 | O=C1CCC(N2Cc3cc(-c4nccc(CN5CC6CC(C5)C6O)c4F)ccc3C2=O)C(=O)N1 (centres unmarked) [Example 219, 3-(5-(3-fluoro-4-((6-hydroxy-3-azabicyclo[3.1.1]heptan-3-yl)methyl)pyridin-2-yl)-1-oxoisoindolin-2-yl)piperidine-2,6-dione]
72.9 | CC1(O)CN(Cc2ccnc(-c3ccc4c(c3)CN(C3CCC(=O)NC3=O)C4=O)c2F)C1 (centres unmarked) [Example 224, 3-(5-(3-fluoro-4-((3-hydroxy-3-methylazetidin-1-yl)methyl)pyridin-2-yl)-1-oxoisoindolin-2-yl)piperidine-2,6-dione]
51.5 | O=C1CCC(N2Cc3cc(-c4nccc(CN5CCC(O)CC5)c4F)ccc3C2=O)C(=O)N1 (centres unmarked) [Example 226, 3-(5-(3-fluoro-4-((4-hydroxypiperidin-1-yl)methyl)pyridin-2-yl)-1-oxoisoindolin-2-yl)piperidine-2,6-dione]
38.6 | C[C@@H]1CN(Cc2ccnc(-c3ccc4c(c3)CN(C3CCC(=O)NC3=O)C4=O)c2F)C[C@H]1O (stereo partly drawn) [Example 232, 3-(5-(3-fluoro-4-(((3S,4R)-3-hydroxy-4-methylpyrrolidin-1-yl)methyl)pyridin-2-yl)-1-oxoisoindolin-2-yl)piperidine-2,6-dione]
8410 | O=C1CCC(N2Cc3cc(-c4nccc(CN5CCC(O)(c6ccc(F)cc6)C5)c4F)ccc3C2=O)C(=O)N1 (centres unmarked) [Example 234, 3-(5-(3-fluoro-4-((3-(4-fluorophenyl)-3-hydroxypyrrolidin-1-yl)methyl)pyridin-2-yl)-1-oxoisoindolin-2-yl)piperidine-2,6-dione]
≥ 10000 | CC(C)(C)OC(=O)N[C@H]1C[C@H](F)CN(Cc2ccnc(-c3ccc4c(c3)CN(C3CCC(=O)NC3=O)C4=O)c2F)C1 (stereo partly drawn) [Example 236, tert-butyl ((3S,5S)-1-((2-(2-(2,6-dioxopiperidin-3-yl)-1-oxoisoindolin-5-yl)-3-fluoropyridin-4-yl)methyl)-5-fluoropiperidin-3-yl)carbamate]
242 | Cc1cc(C2CCCN2Cc2ccnc(-c3ccc4c(c3)CN(C3CCC(=O)NC3=O)C4=O)c2F)on1 (centres unmarked) [Example 244, 3-(5-(3-fluoro-4-((2-(3-methylisoxazol-5-yl)pyrrolidin-1-yl)methyl)pyridin-2-yl)-1-oxoisoindolin-2-yl)piperidine-2,6-dione]
≥ 10000 | COC(=O)N1CC2(CCN(Cc3ccnc(-c4ccc5c(c4)CN(C4CCC(=O)NC4=O)C5=O)c3F)CC2)C1 (centres unmarked) [Example 252, methyl 7-((2-(2-(2,6-dioxopiperidin-3-yl)-1-oxoisoindolin-5-yl)-3-fluoropyridin-4-yl)methyl)-2,7-diazaspiro[3.5]nonane-2-carboxylate]
≥ 10000 | O=C1CCC(N2Cc3cc(-c4nccc(CN5CCc6[nH]ncc6C5)c4F)ccc3C2=O)C(=O)N1 (centres unmarked) [Example 254, 3-(5-(3-fluoro-4-((1,4,6,7-tetrahydro-5H-pyrazolo[4,3-c]pyridin-5-yl)methyl)pyridin-2-yl)-1-oxoisoindolin-2-yl) piperidine-2,6-dione]
492 | CC1(O)CC2CN(Cc3ccnc(-c4ccc5c(c4)CN(C4CCC(=O)NC4=O)C5=O)c3F)CC2C1 (centres unmarked) [Example 255, 3-(5-(3-fluoro-4-((5-hydroxy-5-methylhexahydrocyclopenta[c]pyrrol-2(1H)-yl)methyl)pyridin-2-yl)-1-oxoisoindolin-2-yl)piperidine-2,6-dione]
